From patent US10711006B2, “Selective Bruton's tyrosine kinase inhibitor and use thereof” (HANGZHOU HERTZ PHARMACEUTICAL CO., LTD., priority 2016, dated 2020)

Tests used:
[1] = target: hERG potassium channel (Homo sapiens (Human), UniProt Q12809); assay: hERG potassium channel inhibitory activity, manual patch clamp in CHO cells; format: cell-based; conditions: for IC50: CHO cells stably expressing hERG, whole-cell patch clamp
[2] = target: BLK (Homo sapiens (Human), UniProt P51451); assay: Kinase selectivity experiment, BLK; format: biochemical; conditions: read-out: Inhibitory activity against BLK (IC50)
Description: (§1) A 1× kinase base buffer and a reaction stop buffer for respective kinases in the experiment were prepared as required.
(§2) Preparation of Compounds to be Tested:
(§3) 2) diluting each compound at a 5-fold concentration gradient in a 96-well plate to 6 to 7 concentrations and ensuring that the drug volume in each well was 10 μl; and at the same time adding 100 μl of DMSO to prepare a blank control group and also preparing a negative control group without the enzyme substrate; and
(§4) 3) preparing another 96-well plate, adding 10 μl of each of the above compounds to 90 μl of the 1× kinase base buffer and mixing for 10 minutes to be uniform.
(§5) Preparation of the Plate to be Tested:
(§6) 1) 5 μl of the mixed solution prepared as above in the 96-well plate was taken and transferred to a 384-well plate, with two replicate wells for each compound.
(§7) 1) Preparing a 2.5× kinase solution and adding a corresponding 1× kinase base buffer;
(§8) 2) preparing a 2.5× polypeptide solution and adding FAM-labeled polypeptide and ATP in the 1× kinase base buffer; and
(§9) 3) adding 10 μl of 2.5× kinase solution to a 384-well plate to be tested, placing in a room-temperature environment for 10 minutes, and then adding 10 μl of the 2.5× polypeptide solution, reacting at 28° C. for 1 hour, and then adding 25 μl of a reaction stop buffer.
(§10) The Caliper program reads the plate and uses the data to obtain the IC50 values of the corresponding compounds against kinases.

[3] = target: HCK (Homo sapiens (Human), UniProt P08631); assay: Kinase selectivity experiment, HCK; format: biochemical; conditions: read-out: Inhibitory activity against HCK (IC50)
Description: as §1, §2, §3, §4, §5, §6, §7, §8, §9, §10

[4] = system: human mantle cell lymphoma (MINO); assay: In-vitro tumor cell proliferation inhibition (CCK-8), MINO; conditions: 72 h, read-out: Tumor cell proliferation inhibitory activity (IC50, μM) MINO
Description: The in-vitro antitumor activity assay was carried out on the synthesized compound by using different solid tumors and leukemia cell lines:
Cell lines: human lung cancer cell (A549), human mantle cell lymphoma (MINO), diffuse giant B-cell lymphoma (OCI-LY10), and human diffuse large B lymphoma (TMD-8).
Preparation method of the drug: the drug was dissolved in DMSO to make a 10 mM stock solution, and then the stock solution was diluted in a certain ratio to obtain 5 different concentrations (test concentration 100×). In-vitro culture of tumor cells:
The tumor cells A549, MINO, OCI-LY10, and TMD-8 were seeded in a 96-well plate at 4000 cells/200 μL/well and then incubated overnight at 37° C. in a 5% CO2 cell culture incubator. 2 μL of the compound was added to each well to final concentrations of 50 μM, 10 μM, 2 μM, 0.4 μM, and 0.08 μM and then incubated for 72 hours at 37° C. in a 5% CO2 cell incubator, with DMSO (2%) as a control group. […] Wells loaded with the corresponding amount of cell culture fluid the and CCK-8 solution but no cells were considered as blank controls. The absorbance (OD value) was measured at 450 nm using a microplate reader, and the obtained data was used to calculate IC50.

hERG potassium channel, sequence (Q12809 whole entry): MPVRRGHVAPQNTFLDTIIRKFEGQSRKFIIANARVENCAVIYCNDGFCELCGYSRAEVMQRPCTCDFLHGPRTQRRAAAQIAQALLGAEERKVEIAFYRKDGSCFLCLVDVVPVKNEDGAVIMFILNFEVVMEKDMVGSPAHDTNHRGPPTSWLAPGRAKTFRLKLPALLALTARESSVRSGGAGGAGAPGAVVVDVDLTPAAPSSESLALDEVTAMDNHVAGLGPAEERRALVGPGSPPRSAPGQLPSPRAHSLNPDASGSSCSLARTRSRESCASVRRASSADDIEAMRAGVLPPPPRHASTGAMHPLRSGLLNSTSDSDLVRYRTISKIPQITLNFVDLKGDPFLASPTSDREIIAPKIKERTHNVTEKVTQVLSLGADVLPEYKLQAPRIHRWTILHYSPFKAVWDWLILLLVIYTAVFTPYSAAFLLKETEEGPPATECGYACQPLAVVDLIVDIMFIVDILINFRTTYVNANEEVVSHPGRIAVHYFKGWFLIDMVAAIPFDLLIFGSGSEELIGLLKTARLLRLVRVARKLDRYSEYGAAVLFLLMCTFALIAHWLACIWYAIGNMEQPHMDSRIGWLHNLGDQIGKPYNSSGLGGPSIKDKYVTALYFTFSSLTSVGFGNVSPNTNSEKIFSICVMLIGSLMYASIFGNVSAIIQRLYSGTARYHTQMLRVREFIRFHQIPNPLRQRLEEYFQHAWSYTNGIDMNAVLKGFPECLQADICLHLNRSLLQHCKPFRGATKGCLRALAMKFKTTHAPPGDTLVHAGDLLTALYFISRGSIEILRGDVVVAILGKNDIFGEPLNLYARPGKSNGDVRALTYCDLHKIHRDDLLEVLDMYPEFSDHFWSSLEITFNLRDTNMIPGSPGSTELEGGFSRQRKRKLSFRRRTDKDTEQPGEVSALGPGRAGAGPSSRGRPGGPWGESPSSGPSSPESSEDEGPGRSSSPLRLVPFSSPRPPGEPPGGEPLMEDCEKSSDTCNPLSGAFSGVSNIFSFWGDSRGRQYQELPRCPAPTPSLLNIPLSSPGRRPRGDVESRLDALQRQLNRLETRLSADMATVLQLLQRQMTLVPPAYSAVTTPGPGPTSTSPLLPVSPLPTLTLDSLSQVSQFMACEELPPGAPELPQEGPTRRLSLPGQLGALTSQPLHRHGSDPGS
BLK, sequence (P51451 whole entry, species assumed): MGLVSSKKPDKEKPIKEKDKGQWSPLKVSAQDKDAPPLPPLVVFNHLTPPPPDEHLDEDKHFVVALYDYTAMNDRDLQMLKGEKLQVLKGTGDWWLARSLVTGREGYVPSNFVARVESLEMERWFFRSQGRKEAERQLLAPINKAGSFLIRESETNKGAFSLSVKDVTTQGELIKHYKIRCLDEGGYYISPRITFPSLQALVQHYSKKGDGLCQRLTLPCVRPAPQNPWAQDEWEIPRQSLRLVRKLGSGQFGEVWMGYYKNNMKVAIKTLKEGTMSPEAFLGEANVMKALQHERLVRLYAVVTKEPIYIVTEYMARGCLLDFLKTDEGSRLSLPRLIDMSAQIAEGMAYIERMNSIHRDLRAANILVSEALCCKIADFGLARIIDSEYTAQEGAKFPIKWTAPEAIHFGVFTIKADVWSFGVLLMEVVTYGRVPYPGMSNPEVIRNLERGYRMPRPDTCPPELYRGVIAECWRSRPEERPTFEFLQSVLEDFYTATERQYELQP
HCK, sequence (P08631 whole entry, species assumed): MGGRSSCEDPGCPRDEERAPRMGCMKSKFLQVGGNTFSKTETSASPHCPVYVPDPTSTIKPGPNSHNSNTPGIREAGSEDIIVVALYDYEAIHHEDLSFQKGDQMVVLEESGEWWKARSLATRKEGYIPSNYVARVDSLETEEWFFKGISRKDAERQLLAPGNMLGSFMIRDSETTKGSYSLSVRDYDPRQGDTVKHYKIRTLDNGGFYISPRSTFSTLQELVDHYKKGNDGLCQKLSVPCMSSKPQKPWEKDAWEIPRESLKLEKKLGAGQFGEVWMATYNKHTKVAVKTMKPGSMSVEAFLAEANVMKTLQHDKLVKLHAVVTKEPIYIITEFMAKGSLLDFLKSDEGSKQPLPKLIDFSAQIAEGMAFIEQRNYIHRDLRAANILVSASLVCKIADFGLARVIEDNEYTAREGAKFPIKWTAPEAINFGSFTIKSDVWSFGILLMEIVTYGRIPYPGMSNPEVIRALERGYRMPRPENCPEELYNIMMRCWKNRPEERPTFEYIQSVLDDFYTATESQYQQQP

| IC50 [2] [µM] | IC50 [3] [µM] | IC50 [4] [µM] | Structure (SMILES) | IC50 [1] [µM] | hERG IC50 relative to Compound II ([1]; IC50 ratio to Compound II) [times] | hERG IC50 relative to ibrutinib ([1]; IC50 ratio to ibrutinib) [times] |
| --- | --- | --- | --- | --- | --- | --- |
| 0.03 | > 1 | 6.17 | C=CC(=O)N1CCC[C@@H](n2nc(-c3ccc(Oc4ccccc4)nc3)c3c(N)ncnc32)C1 [Compound 15a, (R)-1-(3-(4-amino-3-(6-phenoxypyridin-3-yl)-1H-pyrazolo[3,4-d]pyrimidin-1-yl)piperidin-1-yl) prop-2-en-1-one] | 15.5 | 2.98 | 4.41 |
| 0.0054 | > 1 | 9.46 | C=CC(=O)N1CC[C@@H](n2nc(-c3ccc(Oc4ccccc4)nc3F)c3c(N)ncnc32)C1 [Compound 24a, (R)-1-(3-(4-amino-3-(2-fluoro-6-phenoxypyridin-3-yl)-1H-pyrazolo[3,4-d]pyrimidin-1-yl)pyrrolidin-1-yl)prop-2-en-1-one] | 7.66 | – | – |
